Target: T1, mNpr1 (Mus musculus, UniProt P18293)
T1 construct: host or cells: HEK-293, transient co-transfection with pGS-40F
T1 sequence (P18293 29-1057): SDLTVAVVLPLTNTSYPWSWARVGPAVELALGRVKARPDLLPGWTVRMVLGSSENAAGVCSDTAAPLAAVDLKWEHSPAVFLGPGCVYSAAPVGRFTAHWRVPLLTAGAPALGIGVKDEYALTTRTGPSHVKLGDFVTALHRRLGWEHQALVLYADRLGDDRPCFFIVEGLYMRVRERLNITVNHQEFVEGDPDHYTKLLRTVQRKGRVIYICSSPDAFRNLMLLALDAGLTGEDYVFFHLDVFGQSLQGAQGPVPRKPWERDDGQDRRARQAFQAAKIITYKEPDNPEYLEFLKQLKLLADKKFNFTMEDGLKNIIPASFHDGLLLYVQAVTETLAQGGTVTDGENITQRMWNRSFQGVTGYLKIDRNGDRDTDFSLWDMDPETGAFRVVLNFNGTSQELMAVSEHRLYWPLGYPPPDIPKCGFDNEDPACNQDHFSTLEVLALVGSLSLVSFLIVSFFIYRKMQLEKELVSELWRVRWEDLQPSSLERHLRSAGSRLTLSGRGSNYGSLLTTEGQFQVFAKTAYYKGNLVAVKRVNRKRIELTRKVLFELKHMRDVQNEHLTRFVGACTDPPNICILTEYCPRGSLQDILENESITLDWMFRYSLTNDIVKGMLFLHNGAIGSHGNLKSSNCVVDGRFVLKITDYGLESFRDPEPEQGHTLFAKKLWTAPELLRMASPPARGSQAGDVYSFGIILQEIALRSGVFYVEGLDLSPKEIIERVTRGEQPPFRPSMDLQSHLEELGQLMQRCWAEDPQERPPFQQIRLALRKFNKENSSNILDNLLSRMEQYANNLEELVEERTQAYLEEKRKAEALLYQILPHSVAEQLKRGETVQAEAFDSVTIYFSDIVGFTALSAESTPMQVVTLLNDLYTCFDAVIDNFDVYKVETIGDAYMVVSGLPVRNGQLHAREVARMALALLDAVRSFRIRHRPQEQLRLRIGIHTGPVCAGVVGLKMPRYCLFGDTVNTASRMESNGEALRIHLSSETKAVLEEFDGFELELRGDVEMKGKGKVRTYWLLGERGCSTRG
Assay: GloSensor assay, HEK-293 cells transiently expressing mNpr1 and pGS-40F
Type: cell-based
Settings: for IC50: 1 nM mNppb 5 minutes after compound, read-out: IC50 [μM] (mean ± SEM), mNpr1; for Ki: calculated with Cheng-Prusoff equation from Table 6, read-out: Ki mNpr1 GloSensor™ [μM] (mean ± SEM)
Protocol: HEK-293 cells (American Type Culture Collection “ATTC,” Manassas, Va.) were cultured in DMEM/F12 supplemented with 2 mM L-glutamine, 10% FBS, 100 U/ml penicillin, and 100 μg/ml streptomycin. For transient expression, 8×10^5 cells were seeded in 6-wells, cultured for 24 hours, and then transfected using TransIT®-293 (Mirus, Madison, Wis.) according to the manufacturer's instructions. After transfection (48 hours), cells were used to measure intracellular cGMP production. HEK-293 cell clones stably expressing pGloSensor™-40F alone (HEK-cGMP-sensor cells) or in addition, human Npr1 (“hNpr1”) (HEK-hNpr1-cGMP-sensor cells) or human Npr2 (HEK-hNpr2-cGMP-sensor cells) were generated by co-transfection with pEAK8-GFP and selection with 1 μg/ml puromycin. Stable expression of transgenes was verified by measuring ligand-induced cGMP production with the cGMP biosensor.
Before the measurement (24 hours in advance), 3×10^4 cells were seeded into white 96-well plates (PerkinElmer, Waltham, Mass.), coated with 0.1% poly(D-lysine), and assays conducted as recommended by the manufacturer (Promega). Medium was aspirated and cells were loaded for two hours at room temperature with 2% GoSensor™ reagent diluted in CO2-independent media (ThermoFisher) supplemented with 2 mM L-glutamine and 10% FBS (assay medium). Luminescence was measured on a BioTek Synergy™ NEO (Winooski, Vt.) plate reader at room temperature. After a baseline measurement of 3-5 minutes, assay medium as a control or assay medium with agonist was manually added, and luminescence was measured for 30 minutes at ˜ 1/60 Hz. For compounds tested for Npr1 and Npr2 inhibition, the compounds were added after baseline measurements, and luminescence was read for 5 minutes before addition of agonist. Luminescence was then normalized to baseline measurements and plotted against the time. Ligand-induced changes of cGMP production were quantified by determining the area under the curve. To determine efficacy and potency of agonists, ligand-induced changes were normalized to medium only addition and plotted against the ligand concentration. […] To quantify […] of compounds, compound-induced changes of agonist-induced cGMP production were normalized to vehicle controls, plotted against compound concentration, and fit with a four-parameter logistic regression. Effects of A-71915 on basal mNpr1 activity were fitted with a bell-shaped regression (equation indicated below).
Because the Npr1 receptor is a ligand-dependent guanylate cyclase, measuring agonist-induced changes in intracellular cGMP levels was used to examine inhibition of Npr1. To measure the production of cGMP by Npr1, a circular permutated Firefly luciferase molecule which was functionally linked to the cGMP binding domain of human PDE5 (GloSensor™ technology pGS-40F) was used, as described in Example 1. This reporter molecule together with a luciferase substrate (GoSensor™ reagent) and a sensitive method for detection of luciferase activity (emitted light) permitted real-time measurement of cGMP levels in live cells (FIG. 1A). The cGMP sensor was expressed in HEK293 cells and luciferase activity after stimulation with the NO-donor sodium nitroprusside (SNP), which activates ubiquitously expressed soluble guanylate cyclases, was examined. […] Next, mNpr1 and the cGMP sensor were transiently expressed in HEK293 cells and agonist dependent receptor activation was examined. […] Next, the effects of A-71915 on mNpr1 were tested.
For Table 6, HEK-293 cells transiently expressing mNpr1 and pGS-40F were stimulated with 1 nM mNppb 5 minutes after addition of candidate compounds or A-71915 and luminescence was measured for 30 minutes. Inhibitors were titrated to calculate apparent IC50 values, as described in methods.

SMILES | IC50 | Ki
COc1ccccc1-c1n[nH]c2ncc(C(=O)NCc3cccnc3)nc12 [JS-6, 3-(2-methoxyphenyl)-N-(pyridin-3-ylmethyl)-1H-pyrazolo[3,4-b]pyrazine-5-carboxamide] | 82 ± 68 µM | 1.69 ± 1.39 µM
COc1ccc(C2(C(=O)N3CCC4(CC3)c3nccn3-c3ccccc3CN4C)CC2)cc1 [JS-12, (1-(4-methoxyphenyl)cyclopropyl)(5-methyl-5,6-dihydrospiro[benzo[f]imidazo[1,2-a][1,4]diazepine-4,4′-piperidin]-1′-yl)methanone] | 13 ± 0.3 µM | 0.26 ± 0.006 µM
COc1cc(CN2CCC(C)(NC(C)=O)CC2)cc(-c2ccncc2)c1 [JS-4, N-(1-(3-methoxy-5-(pyridin-4-yl)benzyl)-4-methylpiperidin-4-yl)acetamide] | 11 ± 3.4 µM | 0.22 ± 0.07 µM
Cc1cc(CNC(=O)c2ccc3c(c2)n(CC2CC2)c(=O)n3C2CCCCC2)on1 [JS-11, 1-cyclohexyl-3-(cyclopropylmethyl)-N-((3-methylisoxazol-5-yl)methyl)-2-oxo-2,3-dihydro-1H-benzo[d]imidazole-5-carboxamide] | 4.9 ± 1.5 µM | 0.1 ± 0.03 µM
Cc1noc(C)c1-c1cc(-c2ccccc2Oc2ccccc2)cn2cncc12 [JS-5, 3,5-dimethyl-4-(6-(2-phenoxyphenyl)imidazo[1,5-a]pyridin-8-yl)isoxazole] | 20 ± 12 µM | 0.42 ± 0.265 µM
CCC(CC)c1cc([C@H]2CN3CC[C@H]2C[C@@H]3CNS(=O)(=O)c2cccs2)nc(-c2ccncc2)n1 [JS-3, N-(((2R,4S,5R)-5-(6-(pentan-3-yl)-2-(pyridin-4-yl)pyrimidin-4-yl)quinuclidin-2-yl)methyl)thiophene-2-sulfonamide] | 12 ± 1.8 µM | 0.25 ± 0.036 µM
Cc1nn2c(c1-c1ccccc1OCc1ccccc1)N(C(=O)Cc1ccc3c(c1)OCO3)CCC2 [JS-8, 2-(benzo[d][1,3]dioxol-5-yl)-1-(3-(2-(benzyloxy)phenyl)-2-methyl-6,7-dihydropyrazolo[1,5-a]pyrimidin-4(5H)-yl)ethan-1-one] | 4.7 ± 0.3 µM | 0.1 ± 0.006 µM

Other lines, results leading:

IC50 | Ki | SMILES
10 ± 2.2 µM | 0.21 ± 0.046 µM | N#Cc1ccccc1CN1CCCC(C(=O)NCc2ccccc2)CCNC(=O)CC1 (stereo not shown) [JS-13, N-benzyl-1-(2-cyanobenzyl)-4-oxo-1,5-diazacycloundecane-8-carboxamide]
15.8 ± 16 µM | 0.32 ± 0.329 µM | CN(Cc1ccccc1)C(=O)c1cn2ccnc(-c3ccccc3)c2n1 [JS-14, N-benzyl-N-methyl-8-phenylimidazo[1,2-a]pyrazine-2-carboxamide]
15 ± 1.8 µM | 0.31 ± 0.037 µM | Cc1nn2c(c1-c1ccccc1Oc1ccccc1)N(C(=O)Cc1ccc3c(c1)OCO3)CCC2 [JS-10, 2-(benzo[d][1,3]dioxol-5-yl)-1-(2-methyl-3-(2-phenoxyphenyl)-6,7-dihydropyrazolo[1,5-a]pyrimidin-4(5H)-yl)ethan-1-one]
28 µM | 0.57 ± 0.0004 µM | Cc1nn2c(c1-c1ccccc1OCc1ccccc1)N(C(=O)Cc1ccccn1)CCC2 [JS-9, 1-(3-(2-(benzyloxy)phenyl)-2-methyl-6,7-dihydropyrazolo[1,5-a]pyrimidin-4(5H)-yl)-2-(pyridin-2-yl)ethan-1-one]
